From ChEMBL document CHEMBL1201862, “PubChem BioAssay data set” (2004)
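These data come from cells grown in 96-well plates and exposed to compound for 48 hours at five concentrations. Here, GI50 denotes the concentration required for 50% inhibition of growth.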 Activity calls are given as the source filed them. Cut-off read from the data, not from the text of the source: active = GI50 up to about 1.1 µM and inactive = higher.

Legend:
Assay in all cases: inhibition of tumour cell growth, NCI panel, 48 h
[1] = tested on: HOP-62
[2] = tested on: NCI-H460
[3] = tested on: TK-10
[4] = tested on: KM12
[5] = tested on: Malme-3M
[6] = tested on: 786-0
[7] = tested on: MOLT-4
[8] = tested on: NCI-H23
[9] = tested on: SF-295
[10] = tested on: HT-29
[11] = tested on: UACC-257
[12] = tested on: HCC 2998
[13] = tested on: ACHN
[14] = tested on: OVCAR-3
[15] = tested on: OVCAR-5
[16] = tested on: CAKI-1

Measured: GI50

CCOC(=O)C1=C(C)C2C3C(=O)OC(=O)C3C1(C)C1C(=O)OC(=O)C21 (stereo not given)
inactive: [1] > 100 µM | [2] > 100 µM | [3] > 100 µM | [4] > 100 µM | [5] > 100 µM | [6] > 100 µM | [7] > 100 µM | [8] > 100 µM | [9] > 100 µM | [10] > 100 µM | [11] > 100 µM | [12] > 100 µM | [13] > 100 µM | [14] > 100 µM

Cc1ccc(NC(=O)CCc2nnc(S)[nH]2)cc1
inactive: [1] > 100 µM | [2] > 100 µM | [3] > 100 µM | [4] > 100 µM | [15] > 100 µM | [5] > 100 µM | [16] > 100 µM | [6] > 100 µM | [7] > 100 µM | [8] > 100 µM | [9] > 100 µM | [10] > 100 µM | [11] > 100 µM | [13] > 100 µM | [14] > 100 µM

CC1OC(=O)N2CCC=CC12 (stereo not given)
inactive: [2] > 100 µM | [3] > 100 µM | [4] > 100 µM | [15] > 100 µM | [5] > 100 µM | [6] > 100 µM | [7] > 100 µM | [8] > 100 µM | [9] > 100 µM | [10] > 100 µM | [11] > 100 µM | [13] > 100 µM | [14] > 100 µM

CC(C)C1CC(O)O[C@@H]([C@@H](C)[C@H]2CC(=O)[C@@H]3[C@@H]4[C@@H](O)[C@H](O)[C@H]5[C@@H](O)[C@H](O)CC[C@]5(C)[C@H]4CC[C@]23C)C1 (stereo not given in full)
inactive: [1] 21.2 µM | [2] > 100 µM | [3] 38.3 µM | [4] 28.6 µM | [5] 77.4 µM | [6] 48 µM | [7] > 100 µM | [8] 36 µM | [9] 47.8 µM | [10] > 100 µM | [11] 5.06 µM | [12] > 100 µM | [13] 24.4 µM | [14] > 100 µM

Cc1cc(C)nc(NS(=O)(=O)c2ccc(NC(=O)c3cccc4c(Nc5ccc(S(=O)(=O)Nc6nc(C)cc(C)n6)cc5)c5ccccc5nc34)cc2)n1
inactive: [1] 21 µM | [2] 32 µM | [3] 27.2 µM | [4] 18.5 µM | [15] > 10 µM | [5] 27.6 µM | [16] 22.8 µM | [6] 19.6 µM | [7] 22.4 µM | [8] 20.3 µM | [9] 21.4 µM | [10] 20 µM | [11] 23 µM | [13] 23.4 µM | [14] 19.9 µM

Fc1ccc(/N=C2C=C/C(=N\c3ccc(F)cc3)c3ccccc3\2)cc1
inactive: [1] 31.4 µM | [2] 93.1 µM | [3] > 100 µM | [15] > 100 µM | [5] > 100 µM | [6] > 100 µM | [7] > 100 µM | [8] 72.1 µM | [9] 51.4 µM | [10] > 100 µM | [11] > 100 µM | [12] > 100 µM | [13] > 100 µM | [14] > 100 µM

OC1=CN=C(C2CC2)Oc2ccccc21
inactive: [1] > 100 µM | [2] > 100 µM | [3] > 100 µM | [4] > 100 µM | [5] > 100 µM | [6] > 100 µM | [7] > 100 µM | [8] > 100 µM | [9] 83.2 µM | [10] > 100 µM | [11] > 100 µM | [12] > 100 µM | [13] > 100 µM | [14] > 100 µM

CC(=O)N/C(=C\c1ccc(/C=C(\NC(C)=O)c2nc3cc(Cl)ccc3[nH]2)cc1)c1nc2ccccc2[nH]1
inactive: [1] > 100 µM | [2] > 100 µM | [3] > 100 µM | [4] > 100 µM | [15] > 100 µM | [5] > 100 µM | [16] > 100 µM | [6] > 100 µM | [7] > 100 µM | [8] > 100 µM | [10] > 100 µM | [13] > 100 µM | [14] > 100 µM

CN(CCN(C)C(=O)CCn1ccc(=O)[nH]c1=O)C(=O)CCn1ccc(=O)[nH]c1=O
inactive: [1] > 100 µM | [2] > 100 µM | [3] > 100 µM | [4] > 100 µM | [15] > 100 µM | [5] > 100 µM | [6] > 100 µM | [7] > 100 µM | [8] > 100 µM | [9] > 100 µM | [10] > 100 µM | [12] > 100 µM | [13] > 100 µM | [14] > 100 µM

CCCCCCCCCCCCCCCCNc1cccc2ccccc12
inactive: [1] > 100 µM | [2] > 100 µM | [3] > 100 µM | [4] > 100 µM | [5] > 100 µM | [6] > 100 µM | [7] > 100 µM | [8] > 100 µM | [9] > 100 µM | [11] > 100 µM | [12] > 100 µM | [13] > 100 µM | [14] > 100 µM

NC(=O)N=C(NCc1ccccc1)NCc1ccccc1
inactive: [1] > 100 µM | [2] > 100 µM | [3] > 100 µM | [4] > 100 µM | [16] > 100 µM | [6] > 100 µM | [8] > 100 µM | [9] > 100 µM | [10] > 100 µM | [11] > 100 µM | [12] > 100 µM | [13] > 100 µM | [14] > 100 µM

NNc1cnn(-c2ccccc2)c(=O)c1Cl
inactive: [1] > 100 µM | [2] > 100 µM | [3] > 100 µM | [4] > 100 µM | [15] > 100 µM | [5] > 100 µM | [16] > 100 µM | [6] > 100 µM | [7] > 100 µM | [8] > 100 µM | [9] > 100 µM | [10] > 100 µM | [11] > 100 µM | [13] > 100 µM | [14] > 100 µM

O=C(O)C(Cc1ccccc1)N1C(=O)N/C(=C\c2ccc(F)cc2)C1=O (stereo not given)
inactive: [1] > 100 µM | [2] > 100 µM | [3] > 100 µM | [4] > 100 µM | [15] > 100 µM | [16] > 100 µM | [6] > 100 µM | [7] > 100 µM | [8] > 100 µM | [9] > 100 µM | [10] > 100 µM | [11] > 100 µM | [12] > 100 µM | [13] > 100 µM

N#C/C(=C1\SC(/N=N/c2ccccc2)C(=O)N1c1ccccc1)c1nc2ccccc2[nH]1 (stereo not given)
inactive: [1] 23.4 µM | [2] 36.1 µM | [3] 48.9 µM | [15] > 100 µM | [5] > 100 µM | [16] > 100 µM | [6] 7.35 µM | [7] 26.1 µM | [8] > 100 µM | [9] 61.2 µM | [10] > 100 µM | [11] 78.2 µM | [13] > 100 µM | [14] 68.1 µM
